# Test results taken from patent US10450347B2, “Immunomodulators” (BRISTOL-MYERS SQUIBB COMPANY, priority 2015, dated 2019).
# Starred links: 1 amine or outer side, 2 acyl side, 3 side chain; linkers in the order of their positions; H or OH if unused. Positions of bridges follow the written chain, without caps; N, C: chain ends. Non-standard residues stand in square brackets, D forms with d. Residues, ends and D or L forms follow the SMILES beside them. Tyrψ(CN4)Ala = C[C@@H](C(=O)[*:2])n1nnnc1[C@H](Cc1ccc(O)cc1)N[*:1]; X2 = O=C(Cn1nnnc1C1(N[*:1])CCCCC1)[*:2]; Bta = N[C@@H](Cc1csc2ccccc12)C(=O)O; Hyp = O=C(O)[C@@H]1C[C@@H](O)CN1; NMeF = CN[C@@H](Cc1ccccc1)C(=O)O; NMeNle = CCCC[C@H](NC)C(=O)O; Sar = CNCC(=O)O
# Biological target: T1, PD-1-Ig/PD-L1-His (Homo sapiens, UniProt Q9NZQ7)
# T1 construct: [hPD-L1(19-239)-tobacco vein mottling virus protease cleavage site (TVMV)-His]; made in house; host or cells: HEK293T cells
# T1 sequence (Q9NZQ7 with tags, fused parts or gaps): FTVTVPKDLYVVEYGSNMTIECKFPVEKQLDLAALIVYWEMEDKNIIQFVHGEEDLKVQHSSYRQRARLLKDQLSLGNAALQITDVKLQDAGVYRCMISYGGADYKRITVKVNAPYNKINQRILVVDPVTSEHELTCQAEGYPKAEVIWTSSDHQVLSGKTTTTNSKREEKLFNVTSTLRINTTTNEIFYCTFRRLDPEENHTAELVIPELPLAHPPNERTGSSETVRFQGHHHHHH
# Test: PD-1/PD-L1 Homogenous Time-Resolved Fluorescence (HTRF) binding assay
# Settings: inhibition of PD-1-Ig binding to PD-L1-TVMV-His; numeric values
# Source text: The ability of the macrocyclic peptides of the present disclosure to bind to PD-L1 was investigated using a PD-1/PD-L1 Homogenous Time-Resolved Fluorescence (HTRF) binding assay.
# Homogenous Time-Resolved Fluorescence (HTRF) Assays of Binding of Soluble PD-1 to Soluble PD-L1. Soluble PD-1 and soluble PD-L1 refers to proteins with carboxyl-end truncations that remove the transmembrane-spanning regions and are fused to heterologous sequences, specifically the Fc portion of the human immunoglobuling G sequence (Ig) or the hexahistidine epitope tag (SEQ ID NO: 3) (His). All binding studies were performed in an HTRF assay buffer consisting of dPBS supplemented with 0.1% (w/v) bovine serum albumin and 0.05% (v/v) Tween-20. For the PD-1-Ig/PD-L1-His binding assay, inhibitors were pre-incubated with PD-L1-His (10 nM final) for 15 m in 4 μl of assay buffer, followed by addition of PD-1-Ig (20 nM final) in 1 μl of assay buffer and further incubation for 15 m. PD-L1 fusion proteins from either human, cynomologous macaques, mouse, or other species were used. HTRF detection was achieved using europium crypate-labeled anti-Ig monoclonal antibody (1 nM final) and allophycocyanin (APC) labeled anti-His monoclonal antibody (20 nM final). Antibodies were diluted in HTRF detection buffer and 5 μl was dispensed on top of binding reaction. The reaction was allowed to equilibrate for 30 minutes and signal (665 nm/620 nm ratio) was obtained using an EnVision fluorometer. Additional binding assays were established between PD-1-Ig/PD-L2-His (20 and 5 nM, respectively), CD80-His/PD-L1-Ig (100 and 10 nM, respectively) and CD80-His/CTLA4-Ig (10 and 5 nM, respectively). Binding/competition studies between biotinylated Compound No. 71 and human PD-L1-His were performed as follows. Macrocyclic peptide inhibitors were pre-incubated with PD-L1-His (10 nM final) for 60 minutes in 4 μl of assay buffer followed by addition of biotinylated Compound No. 71 (0.5 nM final) in 1 μl of assay buffer. Binding was allowed to equilibrate for 30 minutes followed by addition of europium crypated labeled Streptavidin (2.5 pM final) and APC-labeled anti-His (20 nM final) in 5 μl of HTRF buffer. The reaction was allowed to equilibrate for 30 m and signal (665 nm/620 nm ratio) was obtained using an EnVision fluorometer.
# Recombinant Proteins. Carboxyl-truncated human PD-1 (amino acids 25-167) with a C-terminal human Ig epitope tag [hPD-1 (25-167)-3S-IG] and human PD-L1 (amino acids 18-239) with a C-terminal His epitope tag [hPD-L1(19-239)-tobacco vein mottling virus protease cleavage site (TVMV)-His] were expressed in HEK293T cells and purified sequentially by recombinant Protein A affinity chromatography and size exclusion chromatography. Human PD-L2-His (Sino Biologicals), CD80-His (Sino Biologicals), CTLA4-Ig (RnD Systems) were all obtained through commercial sources.
row,IC50,SMILES
1,2160 nM,CCCC[C@H]1C(=O)N[C@@H](CN)C(=O)N[C@H](C(=O)NCC(N)=O)CSCC(=O)N[C@@H](Cc2ccc(O)cc2)C(=O)N[C@H](C)C(=O)N[C@@H](CC(=O)O)C(=O)N2CCC[C@H]2C(=O)N[C@@H](Cc2cnc[nH]2)C(=O)N[C@@H](CCC(N)=O)C(=O)N2C[C@H](O)C[C@H]2C(=O)N[C@@H](Cc2c[nH]c3ccccc23)C(=O)N[C@@H](CO)C(=O)N[C@@H](Cc2cccc3ccccc23)c2nnnn2[C@@H](CCCC)C(=O)N1C [Example 1111]
2,590 nM,CCCC[C@H]1C(=O)N(C)CC(=O)N[C@@H](CC(=O)O)C(=O)N[C@@H](C(C)C)C(=O)N(C)[C@@H](Cc2ccccc2)C(=O)NC2(CCCCC2)c2nnnn2CC(=O)N[C@@H](Cc2c[nH]c3ccccc23)C(=O)N[C@@H](Cc2ccc(O)cc2)C(=O)N[C@@H](CC(C)C)C(=O)N[C@H](C(=O)NCC(N)=O)CSCC(=O)N[C@@H](Cc2ccccc2)C(=O)N(C)[C@@H](Cc2ccccc2)C(=O)N1C [Example 3003] ({CH2CO}-F[NMeF][NMeNle][Sar]DV[NMeF][X2]WYLCG-NH2; thioether N-12)

# Same assay, conditions: inhibition of PD-1-Ig binding to PD-L1-TVMV-His; range classes
row,SMILES,IC50
1,CCCC[C@H]1C(=O)N(C)[C@@H](CCCC)C(=O)N[C@@H](C)C(=O)N[C@H](C(=O)NCC(N)=O)CSCC(=O)N[C@@H](Cc2ccc(O)cc2)c2nnnn2[C@@H](C)C(=O)N[C@@H](CC(=O)O)C(=O)N2CCC[C@H]2C(=O)N[C@@H](Cc2c[nH]cn2)C(=O)N[C@@H](CCC(N)=O)C(=O)N2C[C@H](O)C[C@H]2C(=O)N[C@@H](Cc2c[nH]c3ccccc23)C(=O)N[C@@H](CO)C(=O)N[C@@H](Cc2csc3ccccc23)C(=O)N1C [Example 1105] ({CH2CO}-[Tyrψ(CN4)Ala]DPHQ[Hyp]WS[Bta][NMeNle][NMeNle]ACG-NH2; thioether N-13),100 to 10000 nM
2,CCCC[C@H]1C(=O)N[C@@H](CN)C(=O)N[C@H](C(=O)NCC(N)=O)CSCC(=O)N[C@@H](Cc2ccc(O)cc2)C(=O)N(C)[C@@H](C)C(=O)N[C@@H](CC(=O)O)C(=O)N2CCC[C@H]2C(=O)N[C@@H](Cc2cnc[nH]2)C(=O)N[C@@H](CCC(N)=O)C(=O)N2C[C@H](O)C[C@H]2C(=O)N[C@@H](Cc2c[nH]c3ccccc23)C(=O)N[C@@H](CO)C(=O)N[C@@H](Cc2cccc3ccccc23)c2nnnn2[C@@H](CCCC)C(=O)N1C [Example 1107],100 to 10000 nM
3,CCCC[C@H]1C(=O)N[C@@H](C)C(=O)N[C@H](C(=O)NCC(N)=O)CSCC(=O)N[C@@H](Cc2ccc(O)cc2)C(=O)N[C@H](C)C(=O)N[C@@H](CC(=O)O)C(=O)N2CCC[C@H]2C(=O)N[C@@H](Cc2cnc[nH]2)C(=O)N[C@@H](CCC(N)=O)C(=O)N2C[C@H](O)C[C@H]2C(=O)N[C@@H](Cc2c[nH]c3ccccc23)C(=O)N[C@@H](CO)C(=O)N[C@@H](Cc2cccc3ccccc23)c2nnnn2[C@@H](CCCC)C(=O)N1C [Example 1113],100 to 10000 nM

# Results, then the molecule that gave them:
row,IC50,SMILES
1,10 to 99 nM,CCCC[C@H]1C(=O)N[C@@H](CCC(=O)O)C(=O)N[C@H](C(=O)NCC(N)=O)CSCC(=O)N[C@@H](Cc2ccc(O)cc2)C(=O)N(C)[C@@H](C)C(=O)N[C@@H](CC(=O)O)C(=O)N2CCC[C@H]2C(=O)N[C@@H](Cc2cnc[nH]2)C(=O)N[C@@H](CCC(N)=O)C(=O)N2C[C@H](O)C[C@H]2C(=O)N[C@@H](Cc2c[nH]c3ccccc23)C(=O)N[C@@H](CO)C(=O)N[C@@H](Cc2cccc3ccccc23)c2nnnn2[C@@H](CCCC)C(=O)N1C [Example 1104]
2,100 to 10000 nM,CCCC[C@H]1C(=O)N(C)[C@@H](CCCC)C(=O)N[C@@H](CCC(=O)O)C(=O)N[C@H](C(=O)NCC(N)=O)CSCC(=O)N[C@@H](Cc2ccc(O)cc2)c2nnnn2[C@@H](C)C(=O)N[C@@H](CC(=O)O)C(=O)N2CCC[C@H]2C(=O)N[C@@H](Cc2c[nH]cn2)C(=O)N[C@@H](CCC(N)=O)C(=O)N2C[C@H](O)C[C@H]2C(=O)N[C@@H](Cc2c[nH]c3ccccc23)C(=O)N[C@@H](CO)C(=O)N[C@@H](Cc2csc3ccccc23)C(=O)N1C [Example 1106] ({CH2CO}-[Tyrψ(CN4)Ala]DPHQ[Hyp]WS[Bta][NMeNle][NMeNle]ECG-NH2; thioether N-13)
3,100 to 10000 nM,CCCC[C@H]1C(=O)N[C@@H](CN)C(=O)N[C@H](C(=O)NCC(N)=O)CSCC(=O)N[C@@H](Cc2ccc(O)cc2)C(=O)N(C)[C@@H](C)C(=O)N[C@@H](CC(=O)O)C(=O)N2CCC[C@H]2C(=O)N[C@@H](Cc2c[nH]cn2)C(=O)N[C@@H](CCC(=O)O)C(=O)N2C[C@H](O)C[C@H]2C(=O)N[C@@H](Cc2c[nH]c3ccccc23)C(=O)N[C@@H](CO)C(=O)N[C@@H](Cc2cccc3ccccc23)c2nnnn2[C@@H](CCCC)C(=O)N1C [Example 1108]
4,10 to 99 nM,CCCC[C@H]1C(=O)N[C@@H](CN)C(=O)N[C@H](C(=O)NCC(N)=O)CSCC(=O)N[C@@H](Cc2ccc(O)cc2)C(=O)N(C)[C@@H](C)C(=O)N[C@@H](CC(=O)O)C(=O)N2CCC[C@H]2C(=O)N[C@@H](CN)C(=O)N[C@@H](CCC(=O)O)C(=O)N2C[C@H](O)C[C@H]2C(=O)N[C@@H](Cc2c[nH]c3ccccc23)C(=O)N[C@@H](CO)C(=O)N[C@@H](Cc2cccc3ccccc23)c2nnnn2[C@@H](CCCC)C(=O)N1C [Example 1109]
5,100 to 10000 nM,CCCC[C@H]1C(=O)N(C)[C@@H](CCCC)C(=O)N[C@@H](C)C(=O)N[C@H](C(=O)NCC(=O)O)CSCC(=O)N[C@@H](Cc2ccc(O)cc2)c2nnnn2[C@@H](C)C(=O)N[C@@H](CC(=O)O)C(=O)N2CCC[C@H]2C(=O)N[C@@H](Cc2c[nH]cn2)C(=O)N[C@@H](CCC(N)=O)C(=O)N2C[C@H](O)C[C@H]2C(=O)N[C@@H](Cc2c[nH]c3ccccc23)C(=O)N[C@@H](CO)C(=O)N[C@@H](Cc2csc3ccccc23)C(=O)N1C [Example 1110] ({CH2CO}-[Tyrψ(CN4)Ala]DPHQ[Hyp]WS[Bta][NMeNle][NMeNle]ACG-OH; thioether N-13)

# System: not given
# Test: not given
# Settings: oral administration, extensive first-pass metabolism in the liver; cited from earlier work
row,SMILES,bioavailability
1,CCCC1O[C@@H]2C[C@H]3[C@@H]4CCC5=CC(=O)C=C[C@]5(C)[C@H]4[C@@H](O)C[C@]3(C)[C@]2(C(=O)CO)O1 (some centres unmarked) [budesonide],about 10%
